Measured values published in US20260242438A1 (INSTITUTE OF MATERIA MEDICA, CHINESE ACADEMY OF MEDICAL …, priority 2022, published 2026).
*1 amine or outer side, *2 acyl side, *3 side chain or, on linkers, in order; H or OH if unused. Where a SMILES comes first, the peptide text is derived from it. Bridges are numbered along the chain shown (N, C = ends). The star is where a group is joined. pNA = O=[N+]([O-])c1ccc(N*)cc1; Suc = O=C(CCC(=O)[*:2])[*:1]

What was measured:
chymotrypsin [1] = target: T1, chymotrypsin (Bos taurus, UniProt P00766); assay: Determination of the Michaelis constant Km of chymotrypsin hydrolyzing AAPFpNA; format: biochemical; conditions: R^2=0.9988, pH 7.8, 37° C.
Experimental: (1) Added a total 198 μL of reaction buffer (20 mM CaCl2, 50 mM Tris-HCl (pH 7.8)) into the 96 well plate, followed by preheating at 37° C. for 15 min. Then added 2 μL of different concentrations of substrates (p-Nitroanilide, pNA, 0.5% in DMSO), and mixed by centrifugation at 500 rpm for 1 min. Finally, the plate was incubated at 37° C. for 20 min, and the absorbance value at 405 nm was measured. In the 200 μL of reaction system, the final concentrations of pNA were 0, 0.025, 0.05, 0.075, 0.1, 0.125, 0.15, 0.25, and 0.3 mM, respectively. Make three repetitions for each concentration and plot the OD 405 nm value with pNA concentration to obtain the standard curve. (2) Added a total 190 μL of reaction buffer (20 mM CaCl2, 50 mM Tris-HCl (pH 7.8)) and 8 μL of 0.75 μM chymotrypsin into the 96 well plate, followed by preheating at 37° C. for 5 min. Then added 2 μL of different concentrations of substrates (AAPFpNA, dissolved in DMSO), and mixed by centrifugation at 500 rpm for 1 min. Finally, the plate was incubated at 37° C. for 20 min, and the absorbance value at 405 nm was measured. In the 200 μL of reaction system, the final concentrations of AAPFpNA were 0, 0.125, 0.25, 0.285, 0.33, 0.4, and 0.5 mM, respectively. […]
Using a certain concentration of chymotrypsin to catalyze different concentrations of AAPFpNA to produce pNA, and the absorbance value of OD 405 nm was measured.

Normal ICR mice = assay: In vivo hypoglycemic activity, subcutaneous administration; conditions: for Glucose (mean ± sd): subcutaneous, 0.9 mg/kg
Experimental: Tail tip blood samples were collected at 40 min and 90 min after administration, and blood glucose levels were measured using glucose oxidase method to calculate blood glucose values at each blood sampling time point.

chymotrypsin [2] = target: T1, chymotrypsin; assay: Determination of enzyme inhibitory activity against chymotrypsin (substrate AAPFpNA, OD 405 nm); format: biochemical

**Q.** How did the Km (chymotrypsin [1]) turn out when `C[C@H](NC(=O)CCC(=O)O)C(=O)N[C@@H](C)C(=O)N1CCC[C@H]1C(=O)N[C@@H](Cc1ccccc1)C(=O)Nc1ccc([N+](=O)[O-])cc1` [AAPFpNA, N-succinyl-Ala-Ala-Pro-Phe-p-nitroaniline] (Suc-AAPF-pNA) was run?
**A.** The Km was 380 µM.

**Q.** How did the “hypoglycemic activity (in words)” value (Normal ICR mice; subcutaneous administration, compared with a positive control) turn out when “lispro: insulin analogue lispro synthesized in the present invention” was run?
**A.** The value was “good hypoglycemic activity”.

**Q.** And the “Glucose (mean ± sd)” value (Normal ICR mice; 0 min)?
**A.** Its value is 96.7 ± 24.8 mg/dL.

**Q.** And the “Glucose (mean ± sd)” value (Normal ICR mice; 40 min)?
**A.** Its value is 70.3 ± 6.2 mg/dL.

**Q.** And the “Glucose (mean ± sd)” value (Normal ICR mice; 90 min)?
**A.** Its value is 72.9 ± 15.6 mg/dL.

**Q.** Which Ki (chymotrypsin [2]) does the source give for `CC[C@H](C)[C@@H]1NC(=O)[C@@H]2CCCN2C(=O)[C@@H]2CCCN2C(=O)[C@H]([C@@H](C)CC)NC(=O)[C@H](CO)NC(=O)[C@H](Cc2ccc(O)cc2)NC(=O)[C@H]([C@@H](C)O)NC(=O)[C@@H](NC(=O)[C@@H](NC(=O)CN)[C@@H](C)O)CSSC[C@@H](C(=O)N[C@@H](CC(N)=O)C(=O)N2CCC[C@H]2C(=O)O)NC1=O` [CH61] (H-GTCTYSIPPICNP-OH; disulfide 3-11; C-terminus assumed) here?
**A.** The Ki was 50 nM.

**Q.** What about the IC50 (chymotrypsin [2]; chymotrypsin 30 nM, AAPFpNA 0.5 mM, pH 7.8, 37° C.) of the same compound?
**A.** Its IC50 is 120 nM.

**Q.** And the remaining activity at 0.0001 µM (chymotrypsin [2]; peptide 0.0001 μM, read-out: Residual activity of chymotrypsin)?
**A.** Its remaining activity at 0.0001 µM is 100.9 ± 0.6%.

**Q.** And the remaining activity at 0.001 µM (chymotrypsin [2]; peptide 0.001 μM, read-out: Residual activity of chymotrypsin)?
**A.** The remaining activity at 0.001 µM was 100.1 ± 0.7%.

**Q.** What about the remaining activity at 0.01 µM (chymotrypsin [2]; peptide 0.01 μM, read-out: Residual activity of chymotrypsin) of the same compound?
**A.** Its remaining activity at 0.01 µM is 97.3 ± 5.4%.

**Q.** And the remaining activity at 0.05 µM (chymotrypsin [2]; peptide 0.05 μM, read-out: Residual activity of chymotrypsin)?
**A.** The remaining activity at 0.05 µM was 86.1 ± 3.3%.

**Q.** What about the remaining activity at 0.1 µM (chymotrypsin [2]; peptide 0.1 μM, read-out: Residual activity of chymotrypsin) of the same compound?
**A.** The remaining activity at 0.1 µM was 44.2 ± 4.5%.

**Q.** And the remaining activity at 0.5 µM (chymotrypsin [2]; peptide 0.5 μM, read-out: Residual activity of chymotrypsin)?
**A.** Its remaining activity at 0.5 µM is 24.3 ± 2.5%.

**Q.** What about the remaining activity at 1 µM (chymotrypsin [2]; peptide 1 μM, read-out: Residual activity of chymotrypsin) of the same compound?
**A.** The remaining activity at 1 µM was 13.3 ± 1.7%.

**Q.** What about the remaining activity at 10 µM (chymotrypsin [2]; peptide 10 μM, read-out: Residual activity of chymotrypsin) of the same compound?
**A.** The remaining activity at 10 µM was 1.7%.

**Q.** What about the remaining activity at 100 µM (chymotrypsin [2]; peptide 100 μM, read-out: Residual activity of chymotrypsin) of the same compound?
**A.** The remaining activity at 100 µM was 0.2%.
